The values that follow come from US7659404B2, “Broad spectrum 2-(substituted-amino)-benzothiazole sulfonamide HIV protease inhibitors” (Tibotec Pharmaceuticals Ltd., priority 2001, dated 2010).

Experiment [1] has as its system wild type virus (IIIB). Put plainly: HIV-AVE-MT4-MTT cellular assay, wild type virus (IIIB). Format: cell-based. The following applies: MT4 cells, MTT; for EC50: Human immunodeficiency virus 1, IIIB, MT4, wild type virus (IIIB), read-out: HIV-AVE-MT4-MTT-IIIB-2-002 pEC50 (converted); for HIV-AVE-MT4-MTT-IIIB-2-002 pEC50: wild type virus (IIIB). As for the experimental part:
(§1) HIV- or mock-infected MT4 cells were incubated for five days in the presence of various concentrations of the inhibitor. At the end of the incubation period, all HIV-infected cells have been killed by the replicating virus in the control cultures in the absence of any inhibitor. Cell viability is measured by measuring the concentration of MTT, a yellow, water soluble tetrazolium dye that is converted to a purple, water insoluble formazan in the mitochondria of living cells only. Upon solubilization of the resulting formazan crystals with isopropanol, the absorbance of the solution is monitored at 540 nm. The values correlate directly to the number of living cells remaining in the culture at the completion of the five day incubation. The inhibitory activity of the compound was monitored on the virus-infected cells and was expressed as EC50 and EC90. These values represent the amount of the compound required to protect 50% and 90%, respectively, of the cells from the cytopathogenic effect of the virus. The toxicity of the compound was measured on the mock-infected cells and was expressed as CC50, which represents the concentration of compound required to inhibit the growth of the cells by 50%. The selectivity index (SI) (ratio CC50/EC50) is an indication of the selectivity of the anti-HIV activity of the inhibitor.

For experiment [2], the system named is virus strain F (R13025). Nature of the experiment: microbe, parasite or virus in culture. The following applies: for EC50: Human immunodeficiency virus 1, MT4, read-out: HIV-AVE-MT4-MTT-R13025-2-002 pEC50, virus strain F (R13025), MT4 cells, MTT (converted); for HIV-AVE-MT4-MTT-R13025-2-002 pEC50: virus strain F (R13025), MT4 cells. It is filed as cell-based, HIV. The protocol:
as §1, with “At the end of the incubation period, all HIV-infected cells have been killed by the replicating virus in the control cultures in the absence of any inhibitor.” left out
(§2) Because of the increasing emergence of drug resistant HIV strains, the present compounds were tested for their potency against clinically isolated HIV strains harboring several mutations.
(§3) As a measure of the broad spectrum activity of the present compounds, the fold resistance (FR) defined as FR=EC50(mutant strain)/EC50(HIV-1 strain LAI).

Experiment [3] deals with virus strain S (R13080). Put plainly: microbe, parasite or virus in culture. It is filed as cell-based, HIV. The following applies: for EC50: Human immunodeficiency virus 1, MT4, read-out: HIV-AVE-MT4-MTT-R13080-2-002 pEC50, virus strain S (R13080), MT4 cells, MTT (converted); for HIV-AVE-MT4-MTT-R13080-2-002 pEC50: virus strain S (R13080), MT4 cells. As for the experimental part: as §1, with “At the end of the incubation period, all HIV-infected cells have been killed by the replicating virus in the control cultures in the absence of any inhibitor.” left out
as §2, §3

Regarding `Cc1cccc(C)c1OCC(=O)N[C@@H](Cc1ccccc1)[C@H](O)CN(CC(C)C)S(=O)(=O)c1ccc2nc(NCc3ccncc3)sc2c1` [Compound 131], the results for the EC50 in experiment [1], in experiment [2] and in experiment [3] were 46.8 nM, 832 nM and 1050 nM, respectively.
The matching figures for `CC(C)CN(C[C@@H](O)[C@H](Cc1ccccc1)NC(=O)OCc1cncs1)S(=O)(=O)c1ccc2nc(NC(=O)[C@@H]3CCCN3C)sc2c1` [Compound 166]: 6.31 nM, 21.9 nM and 74.1 nM.
On the same counts, the results for `COc1cc(C(=O)Nc2nc3ccc(S(=O)(=O)N(CC(C)C)C[C@@H](O)[C@H](Cc4ccccc4)NC(=O)COc4c(C)cccc4C)cc3s2)cc(OC)c1O` [Compound 116] are 31.6 nM, 32.4 nM and 43.7 nM.
The matching figures for `Cc1cccc(C)c1OCC(=O)N[C@@H](Cc1ccccc1)[C@H](O)CN(CC(C)C)S(=O)(=O)c1ccc2nc(NC(=O)c3cc(O)cc(O)c3)sc2c1` [Compound 113]: 5.13 nM, 24.5 nM and 43.7 nM.
On to `CC(=O)Nc1nc2ccc(S(=O)(=O)N(CC(C)C)C[C@@H](O)[C@H](Cc3ccccc3)NC(=O)COc3ccon3)cc2s1` [Compound 102], for which the EC50 in experiment [1] was 12 nM; in experiment [2], 132 nM; in experiment [3], 955 nM.
Consider `Cc1cccc(C)c1OCC(=O)N[C@@H](Cc1ccccc1)[C@H](O)CN(CC(C)C)S(=O)(=O)c1ccc2nc(NC(=O)C3CCN(C)CC3)sc2c1` [Compound 127], for which the EC50 is 16.6 nM in experiment [1], 31.6 nM in experiment [2] and 135 nM in experiment [3].
On the same counts, the results for `CC(C)CN(C[C@@H](O)[C@H](Cc1ccccc1)NC(=O)OCc1cncs1)S(=O)(=O)c1ccc2nc(NC(=O)CN3CCOCC3)sc2c1` [Compound 158] are 3.31 nM, 7.94 nM and 30.2 nM.
On the same counts, the results for `CC(C)CN(C[C@@H](O)[C@H](Cc1ccccc1)NC(=O)OCc1cncs1)S(=O)(=O)c1ccc2nc(N(C)C(=O)c3ccc[nH]3)sc2c1` [Compound 180] are 155 nM, 891 nM and 10000 nM.
On the same counts, the results for `CC(C)CN(C[C@@H](O)[C@H](Cc1ccccc1)NC(=O)OCc1cncs1)S(=O)(=O)c1ccc2nc(N(C)C(=O)c3cccnc3)sc2c1` [Compound 153] are 7.41 nM, 45.7 nM and 339 nM.
Turning to `CC(C)CN(C[C@@H](O)[C@H](Cc1ccccc1)NC(=O)OCc1cncs1)S(=O)(=O)c1ccc2nc(NC(=O)CN3CCNCC3)sc2c1` [Compound 155], the EC50 in experiment [1] is 42.7 nM; in experiment [2], 24.5 nM. Further, the “HIV-AVE-MT4-MTT-R13080-2-002 pEC50” value in experiment [3] is on record as 7.49.
In the case of `CC(C)CN(C[C@@H](O)[C@H](Cc1ccccc1)NC(=O)O[C@H]1CCOC1)S(=O)(=O)c1ccc2nc(NC(=O)CN3CCCC3)sc2c1` [Compound 100], the EC50 in experiment [1] is 1.32 nM; in experiment [2] it was 43.7 nM; in experiment [3], 70.8 nM.
As for `CC(C)CN(C[C@@H](O)[C@H](Cc1ccccc1)NC(=O)OCc1cncs1)S(=O)(=O)c1ccc2nc(N3CCN(C)C3=O)sc2c1` [Compound 151], the EC50 in experiment [1] was 107 nM; in experiment [2], 813 nM; in experiment [3], 2690 nM.
On to `CC(C)CN(C[C@@H](O)[C@H](Cc1ccccc1)NC(=O)OCc1cncs1)S(=O)(=O)c1ccc2nc(N(C)C(=O)c3cc[nH]c3)sc2c1` [Compound 181], for which the EC50 in experiment [1] was 33.1 nM; in experiment [2] it was 525 nM; in experiment [3], 1820 nM.
Regarding `Cc1cccc(C)c1OCC(=O)N[C@@H](Cc1ccccc1)[C@H](O)CN(CC(C)C)S(=O)(=O)c1ccc2nc(NC(=O)c3ccccn3)sc2c1` [Compound 112], in experiment [1], the “HIV-AVE-MT4-MTT-IIIB-2-002 pEC50” value was 8. Further, in experiment [2], the “HIV-AVE-MT4-MTT-R13025-2-002 pEC50” value is given as 6.91. Moreover, in experiment [3], the EC50 is 151 nM.
As for `Cc1cccc(C)c1OCC(=O)N[C@@H](Cc1ccccc1)[C@H](O)CN(CC(C)C)S(=O)(=O)c1ccc2nc(NC(=O)c3cccnc3)sc2c1` [Compound 111], the EC50 in experiment [1] was 24.5 nM; in experiment [2] it was 234 nM; in experiment [3], 661 nM.
On the same counts, the results for `CCN1CCCC1CNc1nc2ccc(S(=O)(=O)N(CC(C)C)C[C@@H](O)[C@H](Cc3ccccc3)NC(=O)O[C@H]3CO[C@H]4OCC[C@H]43)cc2s1` (stereo partly drawn) [Compound 186] are 6.17 nM, 6.61 nM and 28.8 nM.
Take `CC(C)CN(C[C@@H](O)[C@H](Cc1ccccc1)NC(=O)OCc1cncs1)S(=O)(=O)c1ccc2nc(NC(=O)C3CCCN(C)C3)sc2c1` (stereo partly drawn) [Compound 183]: the EC50 is 3.55 nM in experiment [1], 1.7 nM in experiment [2] and 7.08 nM in experiment [3].
The matching figures for `CC(C)CN(C[C@@H](O)[C@H](Cc1ccccc1)NC(=O)O[C@H]1CO[C@H]2OCC[C@H]21)S(=O)(=O)c1ccc2nc(N(CCN3CCCC3)C(=O)OC3CO[C@@H]4OCO[C@H]34)sc2c1` (stereo partly drawn) [Compound 178]: 17.4 nM, 10.7 nM and 33.9 nM.
On the same counts, the results for `CC(=O)Nc1nc2ccc(S(=O)(=O)N(CC(C)C)C[C@@H](O)[C@H](Cc3ccccc3)NC(=O)OCc3cncs3)cc2s1` [Compound 169] are 8.51 nM, 6.76 nM and 35.5 nM.
The matching figures for `CC(C)CN(C[C@@H](O)[C@H](Cc1ccccc1)NC(=O)O[C@H]1CO[C@H]2OCC[C@H]21)S(=O)(=O)c1ccc2nc(N3CCN(C)CC3)sc2c1` [Compound 107]: 2 nM, 158 nM and 661 nM.
Regarding `CC(C)CN(C[C@@H](O)[C@H](Cc1ccccc1)NC(=O)O[C@H]1CO[C@H]2OCC[C@H]21)S(=O)(=O)c1ccc2nc(N(C)CCCN(C)C)sc2c1` [Compound 103], the results for the EC50 in experiment [1], in experiment [2] and in experiment [3] were 20 nM, 174 nM and 525 nM, respectively.
On the same counts, the results for `CC(C)CN(C[C@@H](O)[C@H](Cc1ccccc1)NC(=O)C(NC(=O)CNCc1cccc(F)c1)C(C)(C)C)S(=O)(=O)c1ccc2nc(NCCN3CCCC3)sc2c1` (stereo partly drawn) [Compound 189] are 44.7 nM, 102 nM and 138 nM.
On the same counts, the results for `CC(C)CN(C[C@@H](O)[C@H](Cc1ccccc1)NC(=O)O[C@H]1CO[C@H]2OCC[C@H]21)S(=O)(=O)c1ccc2nc(N(C)CCN3CCCC3)sc2c1` [Compound 110] are 8.13 nM, 676 nM and 1550 nM.
The matching figures for `CC(C)CN(C[C@@H](O)[C@H](Cc1ccccc1)NC(=O)OCc1cncs1)S(=O)(=O)c1ccc2nc(NC(=O)c3cccnc3)sc2c1` [Compound 163]: 11.5 nM, 49 nM and 214 nM.
In the case of `CC(C)CN(C[C@@H](O)[C@H](Cc1ccccc1)NC(=O)O[C@H]1CO[C@H]2OCC[C@H]21)S(=O)(=O)c1ccc2nc(N(C)CCCN(C)C)sc2c1` [Compound 141], the “HIV-AVE-MT4-MTT-IIIB-2-002 pEC50” value in experiment [1] was found to be 7.83. Further, in experiment [2], the “HIV-AVE-MT4-MTT-R13025-2-002 pEC50” value is 6.49. Besides, the “HIV-AVE-MT4-MTT-R13080-2-002 pEC50” value in experiment [3] is listed as 6.02.
The matching figures for `CC(C)CN(C[C@@H](O)[C@H](Cc1ccccc1)NC(=O)OCc1cncs1)S(=O)(=O)c1ccc2nc(N(C)C(=O)CN3CCN(C)CC3)sc2c1` [Compound 173]: 8.25, 7.52 and 6.81.
